Experimental findings from patent publication US6864261B2, “Therapeutic agents useful for treating pain” (Euro-Celtique S.A., priority 2002, dated 2005) are described below.

The experiment has as its target T1, mGluR5 (Rattus norvegicus, UniProt P31424).
T1 construct: The procedure allows the expression of the mGluR5 receptor by astrocytes; endogenous in cells; host or cells: secondary astrocyte cultures from cortices of Sprague-Dawley E18 embryos, cultured with EGF
As to the kind of experiment: Inhibition of glutamate induced calcium mobilization in astrocytes expressing mGluR5 (Fluo-4, Fluorometric Imaging Plate reader). The following applies: final glutamate 10 mM (FIG. 1 legend: 10 μM), mean of 3 experiments. The format is cell-based. The procedure: Cell cultures: Primary glial cultures were prepared from cortices of Sprague-Dawley 18 days old embryos. The cortices were dissected and then dissociated by trituration. The resulting cell homogenate was plated onto poly-D-lysine precoated T175 flasks (BIOCOAT, commercially available from Becton Dickinson and Company Inc. of Franklin Lakes, N.J.) in Dulbecco's Modified Eagle's Medium (“DMEM,” pH 7.4), buffered with 25 mM HEPES, and supplemented with 15% fetal calf serum (“FCS,” commercially available from Hyclone Laboratories Inc. of Omaha, Nebr.), and incubated at 37° C. and 5% CO2. After 24 hours, FCS supplementation was reduced to 10%. […]
Assay Protocol: After 3-5 days incubation with EGF, the astrocytes were washed with 127 mM NaCl, 5 mM KCl, 2 mM MgCl2, […] NaH2PO4, 2 mM CaCl2, 5 mM NaHCO3, 8 mM HEPES, 10 mM Glucose at pH 7.4 (“Assay Buffer”) and loaded with the dye Fluo-4 (commercially available from Molecular Probes Inc. of Eugene, Oreg.) using 0.1 mL of Assay Buffer containing Fluo-4 ([…]). […] The plates containing the astrocytes were then transferred to a Fluorometric Imaging Plate reader (commercially available from Molecular Devices Corporation of Sunnyvale, Calif.) for the assessment of calcium mobilization flux in the presence of glutamate and in the presence or absence of antagonist. […] In each experiment each data point was determined two times.

T1 sequence (P31424 21-1203): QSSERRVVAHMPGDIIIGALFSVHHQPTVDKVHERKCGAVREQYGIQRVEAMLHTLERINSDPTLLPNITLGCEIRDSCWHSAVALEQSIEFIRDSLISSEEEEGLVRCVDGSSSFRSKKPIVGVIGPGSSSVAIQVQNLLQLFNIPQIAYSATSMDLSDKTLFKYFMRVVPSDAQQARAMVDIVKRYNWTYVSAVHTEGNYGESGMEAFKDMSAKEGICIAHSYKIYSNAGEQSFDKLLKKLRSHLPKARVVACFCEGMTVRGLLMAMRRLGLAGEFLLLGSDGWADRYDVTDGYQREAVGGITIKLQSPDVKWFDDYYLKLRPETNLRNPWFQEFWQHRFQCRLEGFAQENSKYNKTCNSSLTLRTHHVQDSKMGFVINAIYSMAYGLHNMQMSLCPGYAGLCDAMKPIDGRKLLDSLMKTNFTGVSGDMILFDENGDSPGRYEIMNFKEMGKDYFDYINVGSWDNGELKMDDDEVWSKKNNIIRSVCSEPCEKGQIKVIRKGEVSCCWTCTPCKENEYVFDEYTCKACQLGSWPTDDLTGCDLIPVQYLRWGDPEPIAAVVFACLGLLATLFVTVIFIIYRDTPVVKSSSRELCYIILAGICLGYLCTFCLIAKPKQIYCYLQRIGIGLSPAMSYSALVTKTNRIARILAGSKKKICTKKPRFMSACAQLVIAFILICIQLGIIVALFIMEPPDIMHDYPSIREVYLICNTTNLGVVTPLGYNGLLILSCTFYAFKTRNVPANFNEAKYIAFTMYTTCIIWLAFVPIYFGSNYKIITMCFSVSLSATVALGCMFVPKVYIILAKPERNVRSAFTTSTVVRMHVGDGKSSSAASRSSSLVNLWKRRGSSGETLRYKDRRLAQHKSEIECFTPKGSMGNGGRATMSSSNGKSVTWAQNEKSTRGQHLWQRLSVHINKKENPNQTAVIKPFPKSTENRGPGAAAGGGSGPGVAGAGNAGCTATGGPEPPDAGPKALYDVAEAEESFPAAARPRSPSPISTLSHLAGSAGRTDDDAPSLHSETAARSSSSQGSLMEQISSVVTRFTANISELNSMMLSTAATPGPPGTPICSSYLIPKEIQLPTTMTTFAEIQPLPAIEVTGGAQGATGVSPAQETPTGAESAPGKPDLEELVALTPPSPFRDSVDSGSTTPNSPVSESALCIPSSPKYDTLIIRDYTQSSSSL

For the compound `O=C(C#Cc1ccccc1)N1CCN(c2ncccc2[N+](=O)[O-])CC1` [Compound AA], the IC50 came out at 8.9 ± 4.8 nM.
